Consider 23 molecules from patent US10711004B2 (Genentech, Inc., priority 2018, dated 2020).

The target in the assay is human TRPA1 channel (Homo sapiens (Human), UniProt O75762). Nature of the assay: hTRPA1 CHO Ca2+ FLIPR Tetra assay, block of cinnamaldehyde induced calcium influx. The assay is classed as cell-based. The note with it: CHO cells expressing TRPA1, Hill coefficient fixed to 1.5. In a few lines:
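Calcium-dye-loaded TRPA1-expressing CHO cells in HBSS/20 mM HEPES pH 7.4, 0.02% BSA were preincubated with compound for 10 or 90 min at room temperature. Calcium influx evoked by roughly an EC50 concentration of cinnamaldehyde was then read on FLIPR Tetra; IC50 came from curve fits with a fixed Hill coefficient.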

Where [1] appears, read: read-out: hTRPA1 IC50 (10 min), compounds incubated 10 minutes at room temperature before cinnamaldehyde agonist.
[2] abbreviates: read-out: hTRPA1 IC50 (90 min), compounds incubated 90 minutes at room temperature before cinnamaldehyde agonist.

Read-outs that look alike come from different tables or passages of the source.

human TRPA1 channel, sequence (O75762 whole entry): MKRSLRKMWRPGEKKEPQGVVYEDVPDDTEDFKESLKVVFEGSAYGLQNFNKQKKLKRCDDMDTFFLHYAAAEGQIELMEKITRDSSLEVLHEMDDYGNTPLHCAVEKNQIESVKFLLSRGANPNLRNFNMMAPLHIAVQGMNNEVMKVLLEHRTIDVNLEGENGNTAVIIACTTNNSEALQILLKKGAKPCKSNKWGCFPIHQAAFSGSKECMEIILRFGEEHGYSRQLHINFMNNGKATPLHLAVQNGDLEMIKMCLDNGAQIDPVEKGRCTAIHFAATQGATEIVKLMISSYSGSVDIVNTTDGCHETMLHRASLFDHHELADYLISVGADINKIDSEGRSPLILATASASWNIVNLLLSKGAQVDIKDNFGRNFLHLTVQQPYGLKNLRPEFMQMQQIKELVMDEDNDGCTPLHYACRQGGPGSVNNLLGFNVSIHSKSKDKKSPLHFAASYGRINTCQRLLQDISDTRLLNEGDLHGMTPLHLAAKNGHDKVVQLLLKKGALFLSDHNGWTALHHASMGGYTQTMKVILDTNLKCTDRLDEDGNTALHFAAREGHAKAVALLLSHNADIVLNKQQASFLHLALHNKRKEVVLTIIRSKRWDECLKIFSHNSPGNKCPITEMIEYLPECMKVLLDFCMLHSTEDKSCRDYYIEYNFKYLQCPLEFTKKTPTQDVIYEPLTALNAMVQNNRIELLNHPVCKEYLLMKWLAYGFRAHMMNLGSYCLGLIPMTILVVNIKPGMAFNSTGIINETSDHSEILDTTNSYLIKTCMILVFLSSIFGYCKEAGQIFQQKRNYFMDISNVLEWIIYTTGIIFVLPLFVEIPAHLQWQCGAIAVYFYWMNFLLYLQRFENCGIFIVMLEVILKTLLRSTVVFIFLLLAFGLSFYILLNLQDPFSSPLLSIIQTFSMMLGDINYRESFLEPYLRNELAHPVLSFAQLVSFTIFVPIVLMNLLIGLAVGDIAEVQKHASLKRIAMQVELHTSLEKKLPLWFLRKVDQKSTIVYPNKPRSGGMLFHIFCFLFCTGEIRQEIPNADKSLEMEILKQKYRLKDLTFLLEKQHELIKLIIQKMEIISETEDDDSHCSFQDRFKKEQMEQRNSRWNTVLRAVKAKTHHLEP

A word on the IC50: it is the concentration that inhibits the measured activity by half. For the molecule `Cc1cncc2ncn(Cc3nc([C@H]4C[C@](F)(c5ccc(Cl)cc5)C4)no3)c(=O)c12` [Example Compound 37, 3-((3-((1s,3s)-3-(4-chlorophenyl)-3-fluorocyclobutyl)-1,2,4-oxadiazol-5-yl)methyl)-5-methylpyrido[3,4-d]pyrimidin-4(3H)-one], under setting [1], the IC50 was determined as 22.8 nM.
As to `Cn1cnc2ncn(Cc3nc([C@@H]4[C@H]5C=C(c6ccc7ccncc7c6)C[C@H]54)no3)c(=O)c21` [Example Compound 136, 1-((3-((1R,5R,6S)-3-(isoquinolin-7-yl)bicyclo[3.1.0]hex-2-en-6-yl)-1,2,4-oxadiazol-5-yl)methyl)-7-methyl-1,7-dihydro-6H-purin-6-one], the IC50 was found to be 16.6 nM under setting [1] and 7.6 nM under setting [2].
Consider `COc1ccc(C2=C[C@H]3[C@@H](C2)[C@@H]3c2noc(Cn3cnc4ncn(C)c4c3=O)n2)cc1` [Example Compound 119, 1-((3-((1R,5R,6S)-3-(4-methoxyphenyl)bicyclo[3.1.0]hex-2-en-6-yl)-1,2,4-oxadiazol-5-yl)methyl)-7-methyl-1,7-dihydro-6H-purin-6-one], for which the IC50 stood at 26.6 nM under setting [1] and 16 nM under setting [2].
`Cn1cnc2ncn(Cc3nc([C@@H]4[C@H]5Oc6c(Cl)cccc6[C@H]54)no3)c(=O)c21` [Example Compound 187, 1-((3-((1R,1 aS,6bR)-3-chloro-1a,6b-dihydro-1H-cyclopropa[b]benzofuran-1-yl)-1,2,4-oxadiazol-5-yl)methyl)-7-methyl-1,7-dihydro-6H-purin-6-one]: the IC50 under setting [1] came to 763 nM.
Turning to `Cc1cncc2ncn(Cc3nc([C@H]4[C@@H]5Cc6ccccc6[C@@H]54)no3)c(=O)c12` (stereo in doubt) [Example Compound 20, 5-methyl-3-[[3-[rac-(1S,1aS,6aR)-1,1a,6,6a-tetrahydrocyclopropa[a]inden-1-yl]-1,2,4-oxadiazol-5-yl]methyl]pyrido[3,4-d]pyrimidin-4-one], where the note is “compounds incubated 10 minutes at room temperature before cinnamaldehyde agonist”, the IC50 is 94.3 nM.
As for `Cn1cnc2ncn(Cc3nc([C@H]4[C@@H]5C=C(c6ccncc6)C[C@@H]54)no3)c(=O)c21` [Example Compound 126, 7-methyl-1-((3-((1S,5S,6R)-3-(pyridin-4-yl)bicyclo[3.1.0]hex-2-en-6-yl)-1,2,4-oxadiazol-5-yl)methyl)-1,7-dihydro-6H-purin-6-one], the IC50 reads like this: under setting [1], 189 nM; under setting [2], 96 nM.
With `Cc1cncc2ncn(Cc3nc([C@H]4[C@@H]5CN(c6ccccc6)C[C@@H]54)no3)c(=O)c12`, the IC50 under setting [1] was 14.6 nM.
On to `Cn1cnc2ncn(Cc3nc([C@H]4[C@@H]5C=C(c6ccc(F)cc6F)C[C@@H]54)no3)c(=O)c21` [Example Compound 269, 7-methyl-1-[[3-[(1S,5S,6R)-3-(2,4-difluorophenyl)-6-bicyclo[3.1.0]hex-2-enyl]-1,2,4-oxadiazol-5-yl]methyl]purin-6-one], for which the IC50 runs as follows: under setting [1], 6.96 nM; under setting [2], 4.6 nM.
With `Cn1cnc2ncn(Cc3nc([C@H]4[C@@H]5C=C(c6cc(Cl)ccn6)C[C@@H]54)no3)c(=O)c21` [Example Compound 160, 1-((3-((1S,5S,6R)-3-(4-chloropyridin-2-yl)bicyclo[3.1.0]hex-2-en-6-yl)-1,2,4-oxadiazol-5-yl)methyl)-7-methyl-1,7-dihydro-6H-purin-6-one], the IC50 runs as follows: under setting [1], 91.5 nM; under setting [2], 31 nM.
Consider `Cn1c(=O)ccc2ncn(Cc3nc([C@@H]4[C@H]5C=C(c6ccccc6)C[C@H]54)no3)c(=O)c21` [Example Compound 265, 5-methyl-3-[[3-[(1R,5R,6S)-3-phenyl-6-bicyclo[3.1.0]hex-2-enyl]-1,2,4-oxadiazol-5-yl]methyl]pyrido[3,2-d]pyrimidine-3,6-dione], for which the IC50 under setting [1] worked out at 16.1 nM and the IC50 under setting [2] turned out to be 12 nM.
`Cn1cnc2ncn(Cc3nc([C@H]4[C@@H]5CN(c6cncc(Cl)c6)C[C@@H]54)no3)c(=O)c21`: the IC50 under setting [1] was 287 nM.
Consider `Cn1cnc2ncn(Cc3nc([C@H]4[C@@H]5CN(c6cc(F)cc(Cl)c6)C[C@@H]54)no3)c(=O)c21`, for which, under setting [1], the IC50 was 20.5 nM.
Turning to `Cn1nnc2ncn(Cc3nc([C@H]4[C@@H]5CN(c6cccc(Cl)c6)C[C@@H]54)no3)c(=O)c21` [Example Compound 139, 6-((3-((1R,5S,6r)-3-(3-chlorophenyl)-3-azabicyclo[3.1.0]hexan-6-yl)-1,2,4-oxadiazol-5-yl)methyl)-1-methyl-1,6-dihydro-7H-[1,2,3]triazolo[4,5-d]pyrimidin-7-one], the IC50 amounted to 10.6 nM under setting [1] and 3.6 nM under setting [2].
For the molecule `Cn1cnc2ncn(Cc3nc([C@H]4[C@@H]5CN(c6ccc7ccncc7c6)C[C@@H]54)no3)c(=O)c21`, under setting [1], the IC50 was determined as 69.2 nM.
On to `Cc1ccnc2ncn(Cc3nc(C4Cc5ccccc5C4)no3)c(=O)c12` [Example Compound 27, 3-((3-(2,3-dihydro-1H-inden-2-yl)-1,2,4-oxadiazol-5-yl)methyl)-5-methylpyrido[2,3-d]pyrimidin-4(3H)-one], for which the IC50 under setting [1] came out at 531 nM.
On to `Cn1cnc2ncn(Cc3nc([C@H]4C[C@H](Cc5cccc(Cl)c5)C4)no3)c(=O)c21` [Example Compound 257, 1-[[3-[trans-3-[(3-chlorophenyl)methyl]cyclobutyl]-1,2,4-oxadiazol-5-yl]methyl]-7-methyl-purin-6-one], for which the IC50 reads like this: under setting [1], 16.6 nM; under setting [2], 19 nM.
For the molecule `Cn1cnc2ncn(Cc3nc([C@H]4[C@@H]5CN(c6cccc(C7CC7)c6)C[C@@H]54)no3)c(=O)c21`, the IC50 under setting [1] worked out at 112 nM.
For `O=c1c2cccnc2ncn1Cc1nc([C@H]2C[C@](O)(c3cccc(Cl)c3)C2)no1`, under setting [1], the IC50 was determined as 281 nM.
Still for that read-out and setting: in the case of `Cn1cnc2ncn(Cc3nc([C@H]4[C@@H]5CN(c6ccc(C=O)cc6)C[C@@H]54)no3)c(=O)c21` [Example Compound 32, 4-[(1R,5S,6r)-6-[5-[(7-methyl-6-oxo-purin-1-yl)methyl]-1,2,4-oxadiazol-3-yl]-3-azabicyclo[3.1.0]hexan-3-yl]benzaldehyde] it was 54.9 nM.
Consider `Cn1cnc2ncn(Cc3nc([C@H]4C[C@H](Oc5ccc(Cl)cc5)C4)no3)c(=O)c21` [Example Compound 218, 1-((3-((1r,3r)-3-(4-chlorophenoxy)cyclobutyl)-1,2,4-oxadiazol-5-yl)methyl)-7-methyl-1,7-dihydro-6H-purin-6-one], for which the IC50 runs as follows: under setting [1], 24.9 nM; under setting [2], 13 nM.
Consider `Cn1cnc2ncn(Cc3nc([C@@H]4[C@@H]5CN(c6cccc(Cl)c6)C[C@@H]54)no3)c(=O)c21` [Example Compound 24, 7-methyl-1-[[3-[(1R,5S,6 r)-3-(3-chlorophenyl)-3-azabicyclo[3.1.0]hexan-6-yl]-1,2,4-oxadiazol-5-yl]methyl]purin-6-one], for which, under setting [1], the IC50 came to 8.38 nM.
With `Cn1cnc2ncn(Cc3nc([C@H]4C[C@H](Oc5ccc(F)cc5)C4)no3)c(=O)c21` [Example Compound 177, 1-((3-((1r,3r)-3-(4-fluorophenoxy)cyclobutyl)-1,2,4-oxadiazol-5-yl)methyl)-7-methyl-1,7-dihydro-6H-purin-6-one], the IC50 under setting [1] was determined as 40.1 nM.
For the molecule `Cn1cnc2ncn(Cc3nc([C@H]4[C@@H]5CN(c6cccc(-n7cccn7)c6)C[C@@H]54)no3)c(=O)c21` [Example Compound 202, 1-((3-((1R,5S,6r)-3-(3-(1H-pyrazol-1-yl)phenyl)-3-azabicyclo[3.1.0]hexan-6-yl)-1,2,4-oxadiazol-5-yl)methyl)-7-methyl-1,7-dihydro-6H-purin-6-one], the IC50 under setting [1] was found to be 50.1 nM.
